Experiments:
Raji cells = test: BrdU incorporation assay, glucocorticoid sensitivity of oligonucleotide-transfected Raji cells; assay type: cell-based, human; conditions: for BrdU incorporation: absorbance at 450 nm
Description: In order to examine the change of glucocorticoid sensitivity of cells caused by introduction of oligonucleotide 1, cell proliferation was quantified by a 5-bromo-2′-deoxyuridine (BrdU) incorporation assay. Dexamethasone (manufactured by Biomol) was used as a glucocorticoid. The concentration of dexamethasone was set to varied concentrations of 0 μM (no addition), 0.1 μM, 0.5 μM, 1 μM, 5 μM, and 10 μM.
Raji cells were cultured in serum-free RPMI1640 medium for 12 hours to synchronize the cell cycle, and then re-suspended in RPMI1640 medium supplemented with serum and inoculated onto a 96-well plate.
After dexamethasone was added, the cells were cultured for 22 hours. Then, BrdU was added thereto, and the cells were cultured for another 2 hours. After centrifugation, the supernatant was discarded, and the cells were dried and fixed. The fixed cells were allowed to react with a peroxidase-labeled anti-BrdU antibody for 1 hour at room temperature. Subsequently, the cells were washed three times with PBS, and tetramethylbenzidine was added thereto. When noticeable coloring was observed, the reaction was stopped by adding H2SO4 (1M). After vigorous agitation, absorbance at 450 nm was measured using a plate reader.
Using the Raji cells to which dexamethasone was not added as a control, cell proliferation inhibitory rate (%) was calculated based on the relative ratio of the obtained absorbance. Here, statistical significance was assessed with one-way analysis of variance and multiple comparison. Tukey's multiple comparison was used for the multiple comparison. A significance level of P<0.05 (vs. no addition of oligonucleotide) was regarded as a significant difference.
BrdU incorporation assay was performed in the same manner as in the above, and alternation of the glucocorticoid sensitivity of the cells caused by the introduction of any one of oligonucleotides 2 to 5 was examined. Each experiment was carried out in quadruplicate. The values shown in Table 7 are average values thereof.

GRα and GRβ [1] = test: GRα and GRβ expression levels in Raji cells transfected with oligonucleotide (RT-PCR and PCR); assay type: cell-based, human; conditions: for GAPDH / GRα / GRβ: expression level (band intensity), oligonucleotide 300 nM by electroporation, 24 h; for GAPDH: endogenous control; for GRα/GAPDH / GRβ/GAPDH / Relative value of GRα/GRβ: oligonucleotide 300 nM; for Relative value of GRα/GRβ: cells not transfected = 1;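 for GAPDH: mean of three independent experiments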
Description: Raji cells (manufactured by Japan Health Science Foundation) derived from human Burkitt's lymphoma were used in experiments.
Raji cells were cultured and maintained in RPMI1640 medium (manufactured by Gibco) at 37° C. in an atmosphere of 5% CO2, the RPMI1640 medium being supplemented with 10% fetal bovine serum (FBS) (manufactured by Filtoron), 100 U/ml penicillin, and 100 μg/ml streptomycin.
2×10^6 Raji cells were washed with phosphate-buffered saline (PBS) and suspended in 100 μl transfection reagent of an Amaxa cell line Nucleofector Kit V (manufactured by Lonza).
After the Raji cells were cultured in the above-described medium for 24 hours, the Raji cells were used for subsequent experiments.
The expression level of glyceraldehyde-3-phosphate dehydrogenase (GAPDH) was determined as an endogenous control.
After the Raji cells were washed with PBS, RNA was extracted using a FastPure RNA Kit (manufactured by Takara Bio Inc.), and reverse transcription was performed using a PrimeScript 1st strand cDNA synthesis kit (manufactured by Takara Bio Inc.). The obtained cDNA was amplified using Platinum Taq DNA polymerase (manufactured by Invitrogen) and PCR primers (having the base sequences shown in Table 2) specific for the gene of interest. The PCR conditions included: performing initial denaturation at 94° C. for 2 minutes; performing 35 cycles of denaturation (94° C. for 30 seconds), annealing (55° C. for 30 seconds), and extension (72° C. for 1 minute); and then performing final extension at 72° C. for 4 minutes.
After the PCR was performed, DNA was separated by […] electrophoresis on a 2% agarose gel containing ethidium bromide, and the intensity of bands was quantified using an image analyzer GEL PRINT 2000i/VGA (manufactured by Genomic Solutions).

ERα and ERβ = test: Estrogen receptor expression level in Raji cells transfected with oligonucleotide 1 (RT-PCR and PCR); assay type: cell-based, human
Description: Estrogen receptor (ER) has two splice variants: ERα and ERβ. It is known that SRp30c is involved in regulating the splicing of ER mRNA.
The expressions levels of ERα and ERβ in Raji cells transfected with oligonucleotide 1 were determined by RT-PCR and PCR.
Raji cells transfected with oligonucleotide 1 were obtained in the same manner as in “Cell Culture” and “Introduction of Oligonucleotide into Cells” in Example 1. The oligonucleotide 1 concentration at the time of introduction into cells was 300 nM.
After the Raji cells were washed with PBS, RNA was extracted using a FASTPURE RNA Kit (manufactured by Takara Bio Inc.), and reverse transcription was performed using a PRIMESCRIPT 1st strand cDNA synthesis kit (manufactured by Takara Bio). The obtained cDNA was amplified using PLATINUM Taq DNA polymerase (manufactured by Invitrogen) and PCR primers (having the sequences shown in Table 8) specific for the gene of interest. The PCR conditions included: performing an initial denaturation at 94° C. for 2 minutes; performing 35 cycles of denaturation (94° C. for 30 seconds), annealing (55° C. for 30 seconds), and extension (72° C. for 1 minute); and performing a final extension at 72° C. for 4 minutes.
The expression level of GAPDH as an endogenous control was determined using PCR primers of SEQ ID Nos: 10 and 11.
After the PCR was performed, DNA was separated by […] electrophoresis on a 2% agarose gel containing ethidium bromide, and the intensity of bands was quantified using an image analyzer GEL PRINT 2000i/VGA (manufactured by Genomic Solutions Inc.).

GRα and GRβ [2] = conditions: HT-29 cells and MCF-7 cells; in words; cited from earlier work
[3] = expression level (band intensity), oligonucleotide 1 300 nM
[4] = dexamethasone 0.1 μM, quadruplicate (Table 7), label dexamethasone = no oligonucleotide transfected
[5] = dexamethasone 0.5 μM, quadruplicate (Table 7), label dexamethasone = no oligonucleotide transfected
[6] = dexamethasone 1 μM, quadruplicate (Table 7), label dexamethasone = no oligonucleotide transfected
[7] = dexamethasone 5 μM, quadruplicate (Table 7), label dexamethasone = no oligonucleotide transfected

Compound: Oligonucleotide 1: an oligonucleotide having a base sequence represented by SEQ ID NO: 1 (5′-CTTTCTGGTTTTAACCACATAACATTCTATA-3′) (listed as DNA, chemistry not given here)
- BrdU incorporation (Raji cells; dexamethasone 0 μM, triplicate): 0.556
- BrdU incorporation (Raji cells; dexamethasone 0.1 μM, triplicate, label dexamethasone = no oligonucleotide introduced): 0.372
- BrdU incorporation (Raji cells; dexamethasone 0.5 μM, triplicate, label dexamethasone = no oligonucleotide introduced): 0.286
- BrdU incorporation (Raji cells; dexamethasone 1 μM, triplicate, label dexamethasone = no oligonucleotide introduced): 0.292
- BrdU incorporation (Raji cells; dexamethasone 5 μM, triplicate, label dexamethasone = no oligonucleotide introduced): 0.271
- BrdU incorporation (Raji cells; dexamethasone 10 μM, triplicate, label dexamethasone = no oligonucleotide introduced): 0.279
- cell proliferation inhibitory rate (Raji cells; dexamethasone 0.1 μM vs no dexamethasone, triplicate, label dexamethasone = no oligonucleotide introduced): 32.874%
- cell proliferation inhibitory rate (Raji cells; dexamethasone 0.5 μM vs no dexamethasone, triplicate, label dexamethasone = no oligonucleotide introduced): 48.364%
- cell proliferation inhibitory rate (Raji cells; dexamethasone 1 μM vs no dexamethasone, triplicate, label dexamethasone = no oligonucleotide introduced): 47.553%
- cell proliferation inhibitory rate (Raji cells; dexamethasone 5 μM vs no dexamethasone, triplicate, label dexamethasone = no oligonucleotide introduced): 50.624%
- cell proliferation inhibitory rate (Raji cells; dexamethasone 10 μM vs no dexamethasone, triplicate, label dexamethasone = no oligonucleotide introduced): 49.526%
- BrdU incorporation on addition of dexamethasone, compared to Raji cells not transfected (Raji cells; in words): significant reduction in BrdU incorporation
- cell proliferation inhibitory rate on addition of dexamethasone, compared to Raji cells not transfected (Raji cells; in words): significant increase in cell proliferation inhibitory rate
- glucocorticoid sensitivity of cells (Raji cells; in words): increased the glucocorticoid sensitivity of cells
- GAPDH (GRα and GRβ [1]): 3033.167
- GRα (GRα and GRβ [1]): 3278.767
- GRβ (GRα and GRβ [1]): 4611.084
- GRα/GAPDH (GRα and GRβ [1]): 1.082
- GRβ/GAPDH (GRα and GRβ [1]): 1.519
- Relative value of GRα/GRβ (GRα and GRβ [1]): 1.213
- expression level of GRβ, concentration dependency (GRα and GRβ [1]; various concentrations of oligonucleotide 1): decreased the expression level of GRβ in a concentration-dependent manner
- GAPDH (ERα and ERβ; expression level (band intensity), endogenous control, oligonucleotide 1 300 nM): 2476.113
- ERα (ERα and ERβ; [3]): 2201.941
- ERβ (ERα and ERβ; [3]): 1299.820
- regulation of the splicing of ER mRNA (ERα and ERβ; in words): does not affect the regulation of the splicing of ER mRNA
- ERα/ERβ (ERα and ERβ; oligonucleotide 1 300 nM): 1.694
- ERα/GAPDH (ERα and ERβ; oligonucleotide 1 300 nM): 0.889
- ERβ/GAPDH (ERα and ERβ; oligonucleotide 1 300 nM): 0.525
- Relative value of ERα/ERβ (ERα and ERβ; oligonucleotide 1 300 nM, cells not transfected = 1): approximately 1
- Relative value of ERα/ERβ (ERα and ERβ; oligonucleotide 1 300 nM, cells not transfected = 1, listed as 1): 1.001

Compound: Oligonucleotide 5: an oligonucleotide having a base sequence represented by SEQ ID NO: 5 (5′-CAGATTTTTTTATTATGATGT-3′) (listed as DNA, chemistry not given here)
- cell proliferation inhibitory rate (Raji cells; [4]): 29.842%
- cell proliferation inhibitory rate (Raji cells; [5]): 26.632%
- cell proliferation inhibitory rate (Raji cells; [6]): 32.895%
- cell proliferation inhibitory rate (Raji cells; [7]): 36.053%
- GAPDH (GRα and GRβ [1]): 3087.403
- GRα (GRα and GRβ [1]): 3210.228
- GRβ (GRα and GRβ [1]): 4516.989
- GRα/GAPDH (GRα and GRβ [1]): 1.041
- GRβ/GAPDH (GRα and GRβ [1]): 1.461
- Relative value of GRα/GRβ (GRα and GRβ [1]): 1.210

Compound: Oligonucleotide 2: an oligonucleotide having a base sequence represented by SEQ ID NO: 2 (5′-AAAAGGGCACAGCTTCTTTTCCCATTTAATGAAA-3′) (listed as DNA, chemistry not given here)
- cell proliferation inhibitory rate (Raji cells; [4]): 10.541%
- cell proliferation inhibitory rate (Raji cells; [5]): 19.044%
- cell proliferation inhibitory rate (Raji cells; [6]): 22.769%
- cell proliferation inhibitory rate (Raji cells; [7]): 36.402%
- GAPDH (GRα and GRβ [1]): 3169.938
- GRα (GRα and GRβ [1]): 3340.440
- GRβ (GRα and GRβ [1]): 4641.922
- GRα/GAPDH (GRα and GRβ [1]): 1.054
- GRβ/GAPDH (GRα and GRβ [1]): 1.467
- Relative value of GRα/GRβ (GRα and GRβ [1]): 1.226

Compound: CCCC(=O)[O-].[Na+] [sodium butyrate]
- GRα and GRβ expression levels (GRα and GRβ [2]): increase GRα expression levels while decreasing GRβ expression levels

Compound: CC(/C=C/C(=O)NO)=C\[C@@H](C)C(=O)c1ccc(N(C)C)cc1 [trichostatin A]
- GRα and GRβ expression levels (GRα and GRβ [2]): increase GRα expression levels while decreasing GRβ expression levels

Compound: Oligonucleotide 3: an oligonucleotide having a base sequence represented by SEQ ID NO: 3 (5′-TAAGATGACTTTCTTTTCCCCCACGTATCCT-3′) (listed as DNA, chemistry not given here)
- cell proliferation inhibitory rate (Raji cells; [4]): 16.924%
- cell proliferation inhibitory rate (Raji cells; [5]): 34.134%
- cell proliferation inhibitory rate (Raji cells; [6]): 37.164%
- cell proliferation inhibitory rate (Raji cells; [7]): 48.256%
- GAPDH (GRα and GRβ [1]): 3128.467
- GRα (GRα and GRβ [1]): 3177.814
- GRβ (GRα and GRβ [1]): 4596.457
- GRα/GAPDH (GRα and GRβ [1]): 1.015
- GRβ/GAPDH (GRα and GRβ [1]): 1.471
- Relative value of GRα/GRβ (GRα and GRβ [1]): 1.182

Compound: Nc1ncn([C@H]2C[C@H](O)[C@@H](CO)O2)c(=O)n1 [5-aza-2′-deoxycytidine]
- GRα and GRβ expression levels (GRα and GRβ [2]): increase GRα expression levels while decreasing GRβ expression levels

Source: US9234200B2, “Oligonucleotide, glucocorticoid sensitivity enhancer, pharmaceutical composition, and expression vector” (National University Corporation Tokyo University of …, priority 2011, dated 2016)
